Assay results published in patent publication US11065257B2, “Substituted pyrazoloazepin-4-ones and their use as phosphodiesterase inhibitors” (LEO Pharma A/S, priority 2016, dated 2021).

What follows are compounds tested against T1, human PDE4D catalytic domain (Homo sapiens, UniProt Q08499) (assay: PDE4 Assay). Details: human PDE4D catalytic domain (S380-L740), TR-FRET with FAM-cAMP; expressed as a range of IC50; read-out: PDE4 Potency Range.
T1 construct: UniProt no; Q08499 [S380-L740]
Format: biochemical
Description: The human PDE4D catalytic domain (UniProt no. Q08499 [S380-L740]) was incubated with a mixture of non-labelled cAMP (cyclic adenosine monophosphate) and fluorescein amidite (FAM) conjugated cAMP and titrated test or reference compound. Following brief incubation the enzymatic reaction was stopped by addition of binding buffer containing nanoparticles with immobilized trivalent metal ions capable of binding 1) AMP phospho groups and 2) terbium (Tb) donor fluorophores. Subsequent excitation of the Tb donor triggers time-resolved FRET to adjacent FAM acceptor molecules resulting in light emission. In the presence of a PDE4 inhibitor, AMP generation was reduced resulting in a lower fluorescence signal. The cAMP phosphodiester is not bound by the detection system.
The results were calculated as the molar concentrations resulting in 50% inhibition of the substrate cleavage compared to controls samples, and are expressed as a range of IC50 (nM).

T1 sequence (Q08499 380-740): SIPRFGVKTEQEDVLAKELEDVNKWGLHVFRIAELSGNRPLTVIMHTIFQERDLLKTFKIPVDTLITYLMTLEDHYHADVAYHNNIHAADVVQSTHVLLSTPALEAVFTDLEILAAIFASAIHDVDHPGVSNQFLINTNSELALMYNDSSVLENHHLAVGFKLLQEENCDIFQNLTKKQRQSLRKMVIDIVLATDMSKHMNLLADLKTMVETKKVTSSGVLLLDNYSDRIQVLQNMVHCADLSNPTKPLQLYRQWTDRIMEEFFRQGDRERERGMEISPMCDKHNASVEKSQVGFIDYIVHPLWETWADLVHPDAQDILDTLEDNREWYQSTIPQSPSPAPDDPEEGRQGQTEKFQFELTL

`CCc1nn(CCCOC(=O)C2CCN(C(C)=O)C2)c2c1C(=O)NCC1(CCOCC1)C2` (centres unmarked) [Example 93, 3-(3-ethyl-4-oxo-spiro[6,8-dihydro-5H-pyrazolo[4,3-c]azepine-7,4′-tetrahydropyran]-1-yl)propyl 1-acetylpyrrolidine-3-carboxylate] and `CCc1nn(CCCOC(=O)C2CCCN(C(C)=O)C2)c2c1C(=O)NCC1(CCOCC1)C2` (centres unmarked) [Example 98, 3-(3-ethyl-4-oxo-spiro[6,8-dihydro-5H-pyrazolo[4,3-c]azepine-7,4′-tetrahydropyran]-1-yl)propyl 1-acetylpiperidine-3-carboxylate] cannot be ordered by IC50: greater than 500 nM for the first, greater than 500 nM for the second.

First: CCc1nn(CCCOC(=O)c2ccno2)c2c1C(=O)NCC1(CCOCC1)C2 [Example 22, 3-(3-ethyl-4-oxo-spiro[6,8-dihydro-5H-pyrazolo[4,3-c]azepine-7,4′-tetrahydropyran]-1-yl)propyl isoxazole-5-carboxylate]
Second: CCc1nn(CCCOC(=O)c2ncc[nH]2)c2c1C(=O)NCC1(CCOCC1)C2 [Example 19, 3-(3-ethyl-4-oxo-spiro[6,8-dihydro-5H-pyrazolo[4,3-c]azepine-7,4′-tetrahydropyran]-1-yl)propyl 1H-imidazole-2-carboxylate]
The IC50 of the first is lower: 100 to 500 nM for the first, greater than 500 nM for the second. The first is the more potent here.

`CCc1nn(CCCOC(=O)c2nccc(C)n2)c2c1C(=O)NCC1(CCOCC1)C2` [Example 69, 3-(3-ethyl-4-oxo-spiro[6,8-dihydro-5H-pyrazolo[4,3-c]azepine-7,4′-tetrahydropyran]-1-yl)propyl 4-methylpyrimidine-2-carboxylate] and `CCc1nn(CCCOC(=O)c2ncc(C)cn2)c2c1C(=O)NCC1(CCOCC1)C2` [Example 66, 3-(3-ethyl-4-oxo-spiro[6,8-dihydro-5H-pyrazolo[4,3-c]azepine-7,4′-tetrahydropyran]-1-yl)propyl 5-methylpyrimidine-2-carboxylate] cannot be ordered by IC50: greater than 500 nM for the first, greater than 500 nM for the second.

`CCc1nn(CCCOC(=O)c2nnc(C)[nH]2)c2c1C(=O)NCC1(CCOCC1)C2` [Example 50, 3-(3-ethyl-4-oxo-spiro[6,8-dihydro-5H-pyrazolo[4,3-c]azepine-7,4′-tetrahydropyran]-1-yl)propyl 5-methyl-4H-1,2,4-triazole-3-carboxylate] and `CCc1nn(CCCOC(=O)c2snnc2C)c2c1C(=O)NCC1(CCOCC1)C2` [Example 83, 3-(3-ethyl-4-oxo-spiro[6,8-dihydro-5H-pyrazolo[4,3-c]azepine-7,4′-tetrahydropyran]-1-yl)propyl 4-methylthiadiazole-5-carboxylate] cannot be ordered by IC50: greater than 500 nM for the first, greater than 500 nM for the second.

First: CCc1nn(CCCOC(=O)C2CCN(C(=O)OC)CC2)c2c1C(=O)NCC1(CCOCC1)C2 [Example 105, O4-[3-(3-ethyl-4-oxo-spiro[6,8-dihydro-5H-pyrazolo[4,3-c]azepine-7,4′-tetrahydropyran]-1-yl)propyl] O1-methyl piperidine-1,4-dicarboxylate]
Second: CCc1nn(CCCOC(=O)C2CCOCC2)c2c1C(=O)NCC1(CCOCC1)C2 [Example 59, 3-(3-ethyl-4-oxo-spiro[6,8-dihydro-5H-pyrazolo[4,3-c]azepine-7,4′-tetrahydropyran]-1-yl)propyl tetrahydropyran-4-carboxylate]
The IC50 of the first is lower: 100 to 500 nM for the first, greater than 500 nM for the second. The first is the more potent here.

First: CCc1nn(CCCOC(=O)c2cc(C)on2)c2c1C(=O)NCC1(CCOCC1)C2 [Example 44, 3-(3-ethyl-4-oxo-spiro[6,8-dihydro-5H-pyrazolo[4,3-c]azepine-7,4′-tetrahydropyran]-1-yl)propyl 5-methylisoxazole-3-carboxylate]
Second: CCc1nn(CCCOC(=O)c2coc(C)n2)c2c1C(=O)NCC1(CCOCC1)C2 [Example 46, 3-(3-ethyl-4-oxo-spiro[6,8-dihydro-5H-pyrazolo[4,3-c]azepine-7,4′-tetrahydropyran]-1-yl)propyl 2-methyloxazole-4-carboxylate]
The IC50 of the first is lower: 100 to 500 nM for the first, greater than 500 nM for the second.

`CCc1nn(CCOC(=O)Cc2cccn2C)c2c1C(=O)NCC1(CCOCC1)C2` [Example 9, 2-(3-ethyl-4-oxo-spiro[6,8-dihydro-5H-pyrazolo[4,3-c]azepine-7,4′-tetrahydropyran]-1-yl)ethyl 2-(1-methylpyrrol-2-yl)acetate] and `CCc1nn(CCOC(=O)c2cscn2)c2c1C(=O)NCC1(CCOCC1)C2` [Example 7, 2-(3-ethyl-4-oxo-spiro[6,8-dihydro-5H-pyrazolo[4,3-c]azepine-7,4′-tetrahydropyran]-1-yl)ethyl thiazole-4-carboxylate] cannot be ordered by IC50: greater than 500 nM for the first, greater than 500 nM for the second.

Compared with `CCc1nn(CCCOC(=O)c2ccc(C)nc2C)c2c1C(=O)NCC1(CCOCC1)C2` [Example 87, 3-(3-ethyl-4-oxo-spiro[6,8-dihydro-5H-pyrazolo[4,3-c]azepine-7,4′-tetrahydropyran]-1-yl)propyl 2,6-dimethylpyridine-3-carboxylate], `CCc1nn(CCCOC(=O)c2ccnnc2C)c2c1C(=O)NCC1(CCOCC1)C2` [Example 67, 3-(3-ethyl-4-oxo-spiro[6,8-dihydro-5H-pyrazolo[4,3-c]azepine-7,4′-tetrahydropyran]-1-yl)propyl 3-methylpyridazine-4-carboxylate] is higher in IC50: less than 100 nM for the first, greater than 500 nM for the second.

Compared with `CCc1nn(C[C@@H](C)COC(=O)C2CCOCC2)c2c1C(=O)NCC1(CCOCC1)C2` [Example 109, [(2R)-3-(3-ethyl-4-oxo-spiro[6,8-dihydro-5H-pyrazolo[4,3-c]azepine-7,4′-tetrahydropyran]-1-yl)-2-methyl-propyl] tetrahydropyran-4-carboxylate], `CCc1nn(CCCOC(=O)c2ocnc2C)c2c1C(=O)NCC1(CCOCC1)C2` [Example 47, 3-(3-ethyl-4-oxo-spiro[6,8-dihydro-5H-pyrazolo[4,3-c]azepine-7,4′-tetrahydropyran]-1-yl)propyl 4-methyloxazole-5-carboxylate] is higher in IC50: less than 100 nM for the first, 100 to 500 nM for the second. The first is the more potent here.

First: CCc1nn(CCCOC(=O)c2c[nH]cn2)c2c1C(=O)NCC1(CCOCC1)C2 [Example 17, 3-(3-ethyl-4-oxo-spiro[6,8-dihydro-5H-pyrazolo[4,3-c]azepine-7,4′-tetrahydropyran]-1-yl)propyl 1H-imidazole-4-carboxylate]
Second: CCc1nn(CCCOC(=O)c2ccc(C)cn2)c2c1C(=O)NCC1(CCOCC1)C2 [Example 61, 3-(3-ethyl-4-oxo-spiro[6,8-dihydro-5H-pyrazolo[4,3-c]azepine-7,4′-tetrahydropyran]-1-yl)propyl 5-methylpyridine-2-carboxylate]
The IC50 of the first is higher: greater than 500 nM for the first, 100 to 500 nM for the second. The second is the more potent here.

First: CCc1nn(CCCOC(=O)c2ncccn2)c2c1C(=O)NCC1(CCOCC1)C2 [Example 31, 3-(3-ethyl-4-oxo-spiro[6,8-dihydro-5H-pyrazolo[4,3-c]azepine-7,4′-tetrahydropyran]-1-yl)propyl pyrimidine-2-carboxylate]
Second: CCc1nn(CCCOC(=O)c2cnn(C)c2)c2c1C(=O)NCC1(CCOCC1)C2 [Example 38, 3-(3-ethyl-4-oxo-spiro[6,8-dihydro-5H-pyrazolo[4,3-c]azepine-7,4′-tetrahydropyran]-1-yl)propyl 1-methylpyrazole-4-carboxylate]
The IC50 of the first is higher: greater than 500 nM for the first, 100 to 500 nM for the second. The second is the more potent here.

Work on `CCc1nn(CCCOC(=O)c2ccc3ncn(C)c3c2)c2c1C(=O)NCC1(CCOCC1)C2` [Example 101, 3-(3-ethyl-4-oxo-spiro[6,8-dihydro-5H-pyrazolo[4,3-c]azepine-7,4′-tetrahydropyran]-1-yl)propyl 3-methylbenzimidazole-5-carboxylate] yielded an IC50 of less than 100 nM.
